Experimental data reported in paper PMC12136187, “A Full-Spectrum Generative Lead Discovery (FSGLD) Pipeline via DRUG-GAN: A Multiscale Method for Drug-like/Target-specific Compound Library Generation” (Research Square, 2025).

Target: T1, CB2 receptor (cannabinoid receptor 2) (Homo sapiens, UniProt P34972)
T1 construct: gene CNR2
Assay: radioligand binding assay, dose-response

T1 sequence (P34972 whole entry): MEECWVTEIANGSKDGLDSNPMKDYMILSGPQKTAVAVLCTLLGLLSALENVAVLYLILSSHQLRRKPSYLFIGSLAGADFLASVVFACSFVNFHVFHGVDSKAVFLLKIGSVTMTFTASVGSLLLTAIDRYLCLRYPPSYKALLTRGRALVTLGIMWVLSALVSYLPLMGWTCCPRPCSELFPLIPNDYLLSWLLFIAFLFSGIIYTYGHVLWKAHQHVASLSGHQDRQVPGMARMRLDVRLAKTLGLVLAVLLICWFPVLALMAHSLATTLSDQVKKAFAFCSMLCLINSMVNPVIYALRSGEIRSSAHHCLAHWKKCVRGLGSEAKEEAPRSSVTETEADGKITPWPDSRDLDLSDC

CCCn1c(C)c(C(=O)NCC(=O)N2CCCCC2)c2cc(OC)ccc21 [ZINC77179032]
Ki: 3.77 µM
